The results in this text go back to patent US8415378B2, “Isoxazol-3(2H)-one analogs as therapeutic agents” (AstraZeneca AB, priority 2009, dated 2013).

Molecules are shown by their SMILES. pIC50: −log10 of the molar value.

The target in the assay is T1, human Glu-plasminogen (Homo sapiens, UniProt P00747).
T1 construct: human Glu-plasminogen; purchased Chromogenix, Italy
The experiment in a line: Clot-lysis buffer assay. The assay is classed as biochemical. As for the experimental part:
The assay method used for evaluating biological activity of the compounds according to the invention was Clot-lysis buffer assay.
Tested substance were added to the reaction mixture in 10% DMSO. Reaction was started by the addition of thrombin.
Measured according to the Clot-lysis buffer assay described above.

T1 sequence (P00747 20-810 limits assumed): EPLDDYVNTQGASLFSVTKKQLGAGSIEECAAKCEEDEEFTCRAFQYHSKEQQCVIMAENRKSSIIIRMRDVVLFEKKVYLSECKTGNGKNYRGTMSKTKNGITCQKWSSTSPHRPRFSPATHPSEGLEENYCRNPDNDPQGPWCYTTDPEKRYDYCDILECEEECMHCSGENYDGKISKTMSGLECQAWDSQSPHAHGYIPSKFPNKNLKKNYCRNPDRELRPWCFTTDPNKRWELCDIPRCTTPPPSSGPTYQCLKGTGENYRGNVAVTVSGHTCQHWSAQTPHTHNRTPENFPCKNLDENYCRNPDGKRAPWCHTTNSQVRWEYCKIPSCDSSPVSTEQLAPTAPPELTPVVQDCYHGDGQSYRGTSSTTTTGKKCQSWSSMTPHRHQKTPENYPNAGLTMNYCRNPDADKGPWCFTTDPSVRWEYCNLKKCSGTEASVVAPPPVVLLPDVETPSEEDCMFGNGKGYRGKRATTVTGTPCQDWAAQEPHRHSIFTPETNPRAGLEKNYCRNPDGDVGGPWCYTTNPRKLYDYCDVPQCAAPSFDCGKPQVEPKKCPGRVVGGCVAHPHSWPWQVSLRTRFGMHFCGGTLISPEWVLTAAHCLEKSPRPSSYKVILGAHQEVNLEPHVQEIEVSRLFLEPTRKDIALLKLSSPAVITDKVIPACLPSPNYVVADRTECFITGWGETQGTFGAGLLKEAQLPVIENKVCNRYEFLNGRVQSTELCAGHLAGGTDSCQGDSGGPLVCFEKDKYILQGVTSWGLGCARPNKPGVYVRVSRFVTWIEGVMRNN

Take `CC(C)(C[C@@H]1C[C@@H](c2cc(=O)[nH]o2)CCN1)c1ccccc1` [Example 18, 5-((2S,4S)-2-(2-Methyl-2-phenylpropyl)piperidin-4-yl)isoxazol-3(2H)-one]: the pIC50 is 5.80.

The pIC50 is the negative decadic logarithm of the IC50, by convention in mol/L. High values mean a low IC50, low ones a high IC50.
